The record followed here is ChEMBL document CHEMBL3507680, “University of Dundee, Gates Library screen for HepG2 cell viability”.

The data set in a line: Human HepG2 cell viability assay in 384 well format. Type of data set: toxicity, cell-based. Also on record: dose 125 nL, time 70.5 hour; cytotoxicity at 70.5 h: concentration not given beside the values. The settings on record: HepG2 cells, read-out: Inhibition.
Take `O=C(NC1CCCC1)c1ccc(COCC(F)(F)F)o1`: the cytotoxicity at 70.5 h was -0.375%.
Turning to `CCOc1ccc(NC(=O)N(CCN(C)C)C(C)c2ccncc2)cc1` (stereo not given), the cytotoxicity at 70.5 h turned out to be 13.6%.
As for `CCOCCCNC(=O)C(NC(=O)Cc1cccs1)c1ccccc1` (stereo not given), the cytotoxicity at 70.5 h was found to be 4.71%.
`O=C(NC1CCCCC1)c1ccc(COCC(F)(F)F)o1`: the cytotoxicity at 70.5 h was found to be 19.8%.
As for `CCC(=O)Nc1ccccc1Sc1nc(Br)nn1C`, the cytotoxicity at 70.5 h was -8.59%.
`Cn1nc(Br)nc1Sc1ccccc1NC(=O)C1CC1`: the cytotoxicity at 70.5 h turned out to be 1.89%.
Consider `CCCN1CCc2nc(SCc3ccc(F)cc3)[nH]c(=O)c2C1`, for which the cytotoxicity at 70.5 h was -3.74%.
In the case of `CC(=O)Nc1c(C)noc1/C=C\c1ccc(S(=O)(=O)N2CCCC2)cc1`, the cytotoxicity at 70.5 h was -3.48%.
Take `COC(=O)c1ccc(-c2ccc(/C=C3\C(=O)NC(=N)N3C)o2)cc1`: the cytotoxicity at 70.5 h was found to be 12.1%.
For `COc1ccc(Cl)c(-c2noc3ncn(CCC(=O)O)c(=O)c23)c1`, the cytotoxicity at 70.5 h is -20.8%.
The same measure for `COC(=O)Cn1c(C)cc(=O)n2nc(-c3cccs3)nc12`: 13.3%.
With `Cc1cc(Cc2ccc(S(=O)(=O)N3CCCC3)cc2)c(=O)[nH]n1` the figure was -23.4%; with `CCOC(=O)CNC(=O)NCc1cc(C)n(-c2ccccc2OC)c1C`, 14.4%; with `COc1ccccc1-n1c(C)cc(CNC(=O)NC(C)C)c1C`, -9.03%.
On to `COc1ccc(Nc2nc(N)c(C(C)=O)s2)cc1Cl`, for which the cytotoxicity at 70.5 h was -9.72%.
As for `COc1cccc(CNc2c(O)c(=O)c2=O)c1`, the cytotoxicity at 70.5 h was -20.2%.
In the case of `CC(=O)N1N=C(COc2ccc3c(c2)OCO3)OC1c1cccc(Cl)c1` (stereo not given), the cytotoxicity at 70.5 h is -2.04%.
With `CN1CC=C(c2noc(CCC(=O)N3CCc4ccccc4C3)n2)CC1` the figure was -15%.
On to `COCCCNC(=O)N1CCN(C(=O)c2nsc3ccccc23)CC1`, for which the cytotoxicity at 70.5 h was -18.1%.
As to `COCCCNC(=O)N1CCN(C(=O)c2nsc3ccc(C)cc23)CC1`, the cytotoxicity at 70.5 h is 20.4%.
For the molecule `COc1cnc(CSc2nnc(C)s2)cc1OCC(N)=O`, the cytotoxicity at 70.5 h worked out at 15.1%.
As for `CCN(CC)C(=O)CSc1nc2nc(C)ccc2o1`, the cytotoxicity at 70.5 h worked out at 11.9%.
The same measure for `CC(c1ccncc1)N(CCN(C)C)C(=O)Nc1ccc(Cl)c(Cl)c1` (stereo not given): -11.5%; for `COC(=O)c1cccc(C(=O)NCc2ccco2)n1`: -15.9%; for `O=C1COc2ccc(S(=O)(=O)NCCC3=CCCCC3)cc2N1`: 0.831%.
Consider `Nc1nnc(SCc2cc(=O)n3c4c(sc3n2)CCCC4)s1`, for which the cytotoxicity at 70.5 h was -8.05%.
As for `Cc1n[nH]c2c1C(c1ccc(F)cc1)SCC(=O)N2` (stereo not given), the cytotoxicity at 70.5 h is -4.92%.
For the molecule `O=C(Nc1ccc2c(c1)OCCO2)N1CCCC1c1ccco1` (stereo not given), the cytotoxicity at 70.5 h was -10.5%.
With `CCc1ccccc1NCc1nc2[nH]c(C)c(C)c(=O)n2n1` the figure was 10.8%; with `Cc1cccc(NC(=O)Nc2c[nH]c(=O)[nH]c2=O)c1C`, -1.56%; with `O=c1cc(CSc2nnc[nH]2)nc2sc3c(n12)CCCC3`, -10.9%.
As to `Cc1nnc(SCc2cc(=O)n3c4c(sc3n2)CCCC4)[nH]1`, the cytotoxicity at 70.5 h is -8.32%.
In the case of `COCCNC(=O)c1cnc(N(C)C)nc1C`, the cytotoxicity at 70.5 h is -5.03%.
Regarding `CC(=O)c1cccc(NC(=O)c2cnc(N3CCN(C)CC3)nc2C)c1`, the cytotoxicity at 70.5 h is 12.8%.
Consider `CCC1CN(CC(=O)NCCN(CC)CC)c2ccccc2S1` (stereo not given), for which the cytotoxicity at 70.5 h is -6.69%.
For `O=C(c1cccs1)N1CCN(Cc2cc(=O)c3ccccc3[nH]2)CC1`, the cytotoxicity at 70.5 h was -4.26%.
For the molecule `CCC(CC)C(=O)N1CCN(Cc2cc(=O)c3ccccc3[nH]2)CC1`, the cytotoxicity at 70.5 h came to 7.24%.
With `COc1ccc(C)cc1NC(=O)Nc1cnc(O)nc1O` the figure was -6.34%; with `Cc1nn(C)c2c(=O)n(CC(=O)NCc3ccccn3)ccc12`, 0.706%; with `Cc1nn(C)c2c(=O)n(CC(=O)NCCC(C)C)ccc12`, -5.71%.
Turning to `Cc1nn(C)c2c(=O)n(CC(=O)NCc3ccc(N(C)C)cc3)ccc12`, the cytotoxicity at 70.5 h is -0.296%.
For `COc1ccc(CNC(=O)Cn2ccc3sccc3c2=O)cc1`, the cytotoxicity at 70.5 h came out at 12.8%.
The same measure for `CC(NC(=O)Cn1ccc2sccc2c1=O)c1ccccc1` (stereo not given): -10.1%; for `O=C(Cn1ccc2sccc2c1=O)NCc1ccc(F)cc1`: -9.4%.
Regarding `O=C(Cn1ccc2sccc2c1=O)NCc1ccccc1F`, the cytotoxicity at 70.5 h was -5.13%.
With `CCc1ccc(CNC(=O)Cn2ccc3sccc3c2=O)cc1`, the cytotoxicity at 70.5 h came out at 2.36%.
`COC(=O)CSc1nnc(CCNC(=O)OC(C)(C)C)o1`: the cytotoxicity at 70.5 h was -4.92%.
`CCOCCCNC(=O)CCCC(=O)n1nc(C)c2ccccc21`: the cytotoxicity at 70.5 h is -3.2%.
As to `CC1=C(c2ccc(F)cc2)S(=O)(=O)N=C1N1CCc2ccccc21`, the cytotoxicity at 70.5 h is -4.74%.
`O=C(NCCCN1CCOCC1)c1ccc(-n2ccc3ccccc32)s1`: the cytotoxicity at 70.5 h was -3.96%.
As for `CCOc1nc2cnccc2n(CC(=O)Nc2ccccc2OC)c1=O`, the cytotoxicity at 70.5 h was -7.54%.
For the molecule `O=C(CSC1=NS(=O)(=O)c2cc(F)ccc2N1)c1ccccc1`, the cytotoxicity at 70.5 h is -3.16%.
With `COc1cccc(NC(=O)c2nc3ccccc3n(C)c2=O)c1` the figure was -6.23%; with `COc1cc(CN2CCCCCC2c2cccs2)cc(OC)c1OC` (stereo not given), -9.84%.
On to `Oc1ccccc1CN1CCCCCC1c1cccs1` (stereo not given), for which the cytotoxicity at 70.5 h is -5.04%.
Consider `COC(=O)CNC(=O)N1CCN(c2nc3ccccc3n2C)CC1`, for which the cytotoxicity at 70.5 h is 26.4%.
In the case of `CCS(=O)(=O)N1CCc2ccc(NC(=O)Nc3ccccc3C)cc21`, the cytotoxicity at 70.5 h is -11%.
The same measure for `CCS(=O)(=O)N1CCc2ccc(NC(=O)Nc3ccccc3)cc21`: 9.4%; for `CCS(=O)(=O)N1CCc2ccc(NC(=O)Nc3cccc(C#N)c3)cc21`: 17.6%; for `COC(=O)c1cccc(C(=O)N2CCN(c3ccc(Cl)cc3)CC2)n1`: -6.13%.
With `COC(=O)c1cccc(C(=O)N2CCN(c3ccc(OC)cc3)CC2)n1` the figure was -7.54%; with `O=C(Cc1ccsc1)NCC1Cn2nnc(-c3ccoc3)c2CO1` (stereo not given), -4.44%; with `COc1ccc(CC(=O)N2CCc3nc(C(=O)N(C)C)sc3CC2)cc1`, -4%.
Turning to `CC(C)N(C)Cc1nnc2n1CCCN(C(=O)C1CCCO1)C2` (stereo not given), the cytotoxicity at 70.5 h is -7.64%.
As for `O=C(C1CCCO1)N1CCCn2c(nnc2Cn2cccn2)C1` (stereo not given), the cytotoxicity at 70.5 h is -10.9%.
Turning to `CCC(=O)N1CCc2nc(N3CCOCC3)nc(N(C)C)c2CC1`, the cytotoxicity at 70.5 h was 35.1%.
`CCCS(=O)(=O)N1CCC2(CC1)COCCN(C(C)=O)C2`: the cytotoxicity at 70.5 h is -4.27%.
The same measure for `O=C(Nc1cnccn1)[C@@H]1C[C@H]2OCC[C@H]2N(c2ncc(F)cn2)C1`: 18%.
With `CCn1cc2c(n1)C(COCC1CC1)CN(C(=O)c1ccsc1)C2` (stereo not given) the figure was -10.1%.
Take `CCCS(=O)(=O)N1CCOC2(COCCN(C(C)=O)C2)C1` (stereo not given): the cytotoxicity at 70.5 h is -8.79%.
For `CN(C)C(=O)Cn1c2c(ccc1=O)CC(NCc1cccnc1)CC2` (stereo not given), the cytotoxicity at 70.5 h is -10.4%.
Turning to `O=C(C1CCCO1)N1CCCn2c(nnc2Cn2cccc2)C1` (stereo not given), the cytotoxicity at 70.5 h is -11.4%.
Take `c1cc(-c2ccc3c(c2)C2(CCNCC2)CC3)ccn1`: the cytotoxicity at 70.5 h came to 50.6%.
The same measure for `O=C([C@H]1COC[C@H]2CN(CC3CC3)C[C@H]21)N1CCOCC1`: -2.68%.
On to `Cn1c(C(=O)N2CCOCC2)nc2c1CCN(c1ncccn1)C2`, for which the cytotoxicity at 70.5 h was -1.44%.
On to `CCOCC1COCCC12CCN(C(=O)C1=CCCCC1)CC2` (stereo not given), for which the cytotoxicity at 70.5 h was -4.56%.
Regarding `COc1cccc(CC(=O)N2CCc3ncnc(C)c3CC2)c1`, the cytotoxicity at 70.5 h is -5.98%.
On to `O=S1(=O)NCC2(CCN(c3ncc(F)cn3)CC2)COc2ccccc21`, for which the cytotoxicity at 70.5 h was -0.496%.
Turning to `CC1N(C)C(=O)COC12CCN(C(=O)CCc1ccccc1)CC2` (stereo not given), the cytotoxicity at 70.5 h is 5.92%.
As for `O=C(Cc1cccc(F)c1)N1CCc2ncnc(N3CCCC3)c2CC1`, the cytotoxicity at 70.5 h was -1.93%.
Regarding `CC(C)n1cnc2c1C(C(=O)N1CCCC1)N(S(C)(=O)=O)CC2` (stereo not given), the cytotoxicity at 70.5 h was -0.195%.
Consider `Cc1cc(C)n(CC2CN(CC(=O)N3CCC3)CCO2)n1` (stereo not given), for which the cytotoxicity at 70.5 h is -13.4%.
For `Cc1cc(C)n(CC2CN(CC(=O)N3CCNC3=O)CCO2)n1` (stereo not given), the cytotoxicity at 70.5 h was -1.37%.
`O=C(c1ccccc1Cl)N1CCN(CCc2ccccn2)CC1`: the cytotoxicity at 70.5 h is -5.74%.
For the molecule `O=C([C@H]1CCCO1)N1CCC2(CC1)CNCc1ccccc12`, the cytotoxicity at 70.5 h was 8.83%.
With `O=C([C@@H]1CSCN1)N1CCC2(CC1)CNCc1ccccc12`, the cytotoxicity at 70.5 h is 3.6%.
The same measure for `COCCN1CC[C@H]2CN(c3cc(OC)ncn3)C[C@@H]2C1=O`: 24.4%; for `CC[C@@H]1N(CC2CC2)CCC[C@]12CCC(=O)N2`: -1.41%.
In the case of `Cc1nc2c(c(NC(C)C)n1)CCN(C1CCOCC1)CC2`, the cytotoxicity at 70.5 h amounted to 2.46%.
In the case of `CN(C)C(=O)Cn1c2c(ccc1=O)CC(NCc1ccoc1)CC2` (stereo not given), the cytotoxicity at 70.5 h amounted to 1.44%.
With `CN(C)CCNC(=O)[C@H]1C[C@@H]2CN(C(=O)NC3CCCC3)C[C@H]1O2` the figure was 5.4%; with `CN(C)Cc1cnc2n1CCN(C(=O)Cc1ccsc1)CC2`, 8.26%.
With `CC1N(C)C(=O)COC12CCN(Cc1ccsc1)CC2` (stereo not given) the figure was 4.85%; with `COCCN1CCOCC12CCN(c1ccc(C#N)cc1)CC2`, -0.11%.
For `O=S1(=O)NCC2(CCNCC2)COc2ccccc21`, the cytotoxicity at 70.5 h was -2.63%.
In the case of `CN(C)Cc1cnc2n1CCN(C(=O)NCc1ccccc1)CC2`, the cytotoxicity at 70.5 h was determined as 4.32%.
With `CN(C)Cc1cnc2n1CCN(C(=O)Cc1cccc(F)c1)CC2`, the cytotoxicity at 70.5 h came out at 4.88%.
In the case of `COCCN1CCCC12CCN(Cc1cccnc1OC)CC2`, the cytotoxicity at 70.5 h was 31.2%.
For the molecule `COCCCN1CCCC12CCN(Cc1cccnc1OC)CC2`, the cytotoxicity at 70.5 h is 1.58%.
With `OCCN1CC2(CCN(CC3CC3)CC2)c2ccccc21` the figure was 4.7%.
